Results: ChEMBL document CHEMBL4725456, “Therapeutic Potential of Autotaxin Inhibitors in Treatment of Interstitial Lung Diseases” (ACS Med Chem Lett, 2020)

Assay: In vivo inhibition of ATX in rat assessed as reduction in plasma LPA levels at 5 mg/kg, po measured after 8 hrs by LC-MS analysis relative to control
Format: functional

Row | SMILES | inhibition in vivo at 5 mg/kg
1 | COc1ccc(COc2ccc(NCc3ccc(N4CCN(C(C)=O)CC4)cc3)nn2)cn1 | 98.3%
2 | CC(=O)N1CCN(c2ccc(CNc3ccc(OCc4cccc(C#N)c4)nn3)cc2)CC1 | 95.7%
